Measured values as given in US20220323591A1, “HEPARIN NANO DRUG CARRIER SYSTEM LOADED WITH AMINO ANTI-TUMOR DRUG AND PREPARATION METHOD THEREOF” (NANJING KING-FRIEND BIOCHEMICAL PHARMACEUTICAL CO., LTD., priority 2020, published 2022).

How the values were obtained:
[1] = test system: 4T1 breast cancer xenograft tumors; test: In vivo experiment of breast cancer cells, daunorubicin nano drug carrier systems; conditions: 3 mg/kg via caudal veins, once every three days, 4 times; 4T1 in BALB/c mice
Procedure: Anti-tumor effects of nanoparticles in vivo are studied in BALB/c mice with 4T1 breast cancer xenograft tumors. Free daunorubicin (Group I), daunorubicin-Py-PEG-HP (Group II) and daunorubicin-Mal-PEG-HP (Group III) are administered via caudal veins at a dose of 3 mg/kg, for once every three days and in total 4 times, with the free daunorubicin group (Group I) as the control.

[2] = test system: acute promyelocytic leukemia (HL-60) cells; test: Uptake experiment of leukemia cells; assay type: cell-based; conditions: 1×10^5/ml
Procedure: An uptake experiment of free daunorubicin, daunorubicin-Py-PEG-HP and daunorubicin-Mal-PEG-HP with acute promyelocytic leukemia (HL-60) cells: the concentration of HL-60 cells is adjusted to 1×10^5/ml, and the cells are added into a 24 -well plate with 1 ml per well; a certain concentration of pure DNR solution and a certain concentration of DNR-NP suspension are added into a culture plate, and cultured for a certain time, then the cells are taken out at five time points (30 min, 60 min, 90 min, 120 min and 180 min) respectively; centrifugation is performed at 4° C. under 1000 rpm for 5 min, and the cells are collected, and then washed twice using a RPM11640 medium added with serum; the cells are lysed with 1.5 ml of 50 μg/ml protease K and a 1% SDS solution, with continuous shaking performed at 37° C. for 12 hours, and a cell extract is collected; and the drug content in the cells is calculated by a fluorescence intensity standard curve.

[3] = test system: xenotransplantation 4T1 tumor model; test: In vivo experiment of breast cancer cells, lenalidomide and lapatinib nano drug carrier systems; set-up: species or system BALB/c mice; conditions: 4 mg/kg via caudal veins, once every two days, 5 times; normal saline as control
Procedure: The anti-tumor effect of nanoparticles in vivo is based on investigation of a xenotransplantation 4T1 tumor model established in the BALB/c mice. Each of groups represents normal saline (Group I), free lenalidomide (Group II), lenalidomide-Py-PEG-HP (Group III), […] lenalidomide-Mal-PEG-HP (Group IV), free lapatinib (Group V), lapatinib-Py-PEG-HP (Group VI) and lapatinib-Mal-PEG-HP (Group VII) respectively, wherein they are administrated via caudal veins at a dosage of 4 mg/kg, once every two days, with a total of 5 times. As shown in the diagram below, the tumor development is detected on the second day after administration.

[4] = test system: 5T33 multiple myeloma cells; test: In vivo experiment of multiple myeloma; set-up: species or system mice
Procedure: Thirty 6-week-old mice are divided into three groups, which are administrated with free lenalidomide (Group I), lenalidomide-Py-PEG-HP (Group II) and lenalidomide-Mal-PEG-HP (Group III) respectively. Male and female animals in each group are halved, and there is no statistically significant difference in body weight among animals in each group. The dosage of free lenalidomide group is 0.1 ml/kg body weight/day, and the dosage of lenalidomide-Py-PEG-HP group and lenalidomide-Mal-PEG-HP group is 20 mg/kg (body weight/day).
One week after injection of 1,000,000 5T33 multiple myeloma cells into the tail veins of mice, drugs are administered subcutaneously according to the above scheme, for three times a week. During the administration period, the animals are weighed every day, and the dosage on that day is determined according to the weight, and the animals are continuously administered until death of the mice. The venous blood of mice is collected and stored every week, and the time of death of mice is recorded.
According to the statistical test, there is significant difference in the survival time of mice when free lenalidomide group is compared with heparin nano drug carrier system (P<0.05), as shown in Table 1. There is significant difference in the tumor load in serum of mice when the free lenalidomide group is compared with heparin nano drug carrier system (P<0.05), as shown in Table 2.

Structure (SMILES)	anti-tumor effect (tumor volume) [1]	uptake efficiency [2] [%]	anti-tumor effect (tumor development) [3]	Average survival days of mice after drug injection ([4]; 5T33 mice, subcutaneous, three times a week, free lenalidomide 0.1 ml/kg body weight/day, conjugates 20 mg/kg) [days]	Average tumor load in serum of mice after drug injection ([4]; 1 day, mouse LGg2b concentration) [µg/mL]	Average tumor load in serum of mice after drug injection ([4]; 8 days) [µg/mL]	Average tumor load in serum of mice after drug injection ([4]; 15 days) [µg/mL]	Average tumor load in serum of mice after drug injection ([4]; 22 days) [µg/mL]	Average tumor load in serum of mice after drug injection ([4]; 29 days) [µg/mL]
COc1cccc2c1C(=O)c1c(O)c3c(c(O)c1C2=O)C[C@@](O)(C(C)=O)C[C@@H]3O[C@H]1C[C@H](N)[C@H](O)[C@H](C)O1 [free daunorubicin, daunorubicin]	insignificant anti-tumor activity	16							
Nc1cccc2c1CN(C1CCC(=O)NC1=O)C2=O (stereo not shown) [free lenalidomide, lenalidomide]			have the anti-tumor activity	35	125.3	206.5	335.2	611.4	864.1
CS(=O)(=O)CCNCc1ccc(-c2ccc3ncnc(Nc4ccc(OCc5cccc(F)c5)c(Cl)c4)c3c2)o1 [free lapatinib, lapatinib]			have the anti-tumor activity						
